Data as given in ChEMBL document CHEMBL3046796, “Evaluation of a new lead for acetylcholinesterase inhibition” (Med Chem Res, 2009).

Legend:
[1] = target: Acetylcholinesterase (Electrophorus electricus) (UniProt O42275); assay: Inhibition of Electrophorus electricus (electric eel) acetylcholinesterase (AChE) using […] as substrate at 10 '-5 M by Ellman method
[2] = target: Cholinesterase (Equus caballus) (UniProt P81908); assay: Inhibition of Equus caballus (horse) serum butyrylcholinesterase (BChE) at 10 '-4 M by Ellman method
Sequence of Cholinesterase (Equus caballus) (P81908 whole entry): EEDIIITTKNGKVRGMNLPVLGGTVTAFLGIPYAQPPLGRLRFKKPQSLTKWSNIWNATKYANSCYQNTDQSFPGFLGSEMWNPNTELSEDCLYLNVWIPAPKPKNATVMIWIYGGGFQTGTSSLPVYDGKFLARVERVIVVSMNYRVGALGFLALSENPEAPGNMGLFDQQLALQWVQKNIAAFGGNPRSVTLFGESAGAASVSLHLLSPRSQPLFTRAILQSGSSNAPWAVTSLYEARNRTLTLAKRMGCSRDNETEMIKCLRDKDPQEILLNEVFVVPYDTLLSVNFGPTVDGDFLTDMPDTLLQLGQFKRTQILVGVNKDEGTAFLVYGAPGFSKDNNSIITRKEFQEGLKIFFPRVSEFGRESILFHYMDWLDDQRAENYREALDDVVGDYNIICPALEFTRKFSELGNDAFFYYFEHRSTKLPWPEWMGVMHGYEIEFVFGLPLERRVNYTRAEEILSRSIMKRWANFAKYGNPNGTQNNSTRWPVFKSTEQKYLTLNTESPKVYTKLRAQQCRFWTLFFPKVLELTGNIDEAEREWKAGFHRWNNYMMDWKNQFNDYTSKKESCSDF

[3] = target: Cholinesterase (Equus caballus) (UniProt P81908); assay: Inhibition of Equus caballus (horse) serum butyrylcholinesterase (BChE) at 10 '-5 M by Ellman method
[4] = target: Acetylcholinesterase (Electrophorus electricus, UniProt O42275); assay: Inhibition of Electrophorus electricus (electric eel) acetylcholinesterase (AChE) using […] as substrate by Ellman method
Sequence of Acetylcholinesterase (O42275 whole entry): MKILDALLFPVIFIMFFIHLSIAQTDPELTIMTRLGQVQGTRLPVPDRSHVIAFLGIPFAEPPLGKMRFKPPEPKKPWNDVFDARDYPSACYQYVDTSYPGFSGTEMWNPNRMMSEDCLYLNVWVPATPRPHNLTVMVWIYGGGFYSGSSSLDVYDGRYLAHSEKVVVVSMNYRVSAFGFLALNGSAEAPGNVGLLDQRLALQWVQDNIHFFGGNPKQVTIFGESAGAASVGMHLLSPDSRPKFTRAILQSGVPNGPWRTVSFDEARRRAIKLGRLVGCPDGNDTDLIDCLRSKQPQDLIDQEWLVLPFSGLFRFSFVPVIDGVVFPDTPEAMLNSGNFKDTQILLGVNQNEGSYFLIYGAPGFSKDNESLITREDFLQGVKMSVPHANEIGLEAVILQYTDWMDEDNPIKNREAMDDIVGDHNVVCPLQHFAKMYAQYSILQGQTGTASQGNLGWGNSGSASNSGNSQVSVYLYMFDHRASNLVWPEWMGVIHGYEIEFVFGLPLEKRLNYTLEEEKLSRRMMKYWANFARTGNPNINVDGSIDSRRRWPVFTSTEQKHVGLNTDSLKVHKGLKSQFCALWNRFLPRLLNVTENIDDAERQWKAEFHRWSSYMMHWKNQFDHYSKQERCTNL

Sequence of Acetylcholinesterase (Electrophorus electricus) (O42275 24-633 limits assumed): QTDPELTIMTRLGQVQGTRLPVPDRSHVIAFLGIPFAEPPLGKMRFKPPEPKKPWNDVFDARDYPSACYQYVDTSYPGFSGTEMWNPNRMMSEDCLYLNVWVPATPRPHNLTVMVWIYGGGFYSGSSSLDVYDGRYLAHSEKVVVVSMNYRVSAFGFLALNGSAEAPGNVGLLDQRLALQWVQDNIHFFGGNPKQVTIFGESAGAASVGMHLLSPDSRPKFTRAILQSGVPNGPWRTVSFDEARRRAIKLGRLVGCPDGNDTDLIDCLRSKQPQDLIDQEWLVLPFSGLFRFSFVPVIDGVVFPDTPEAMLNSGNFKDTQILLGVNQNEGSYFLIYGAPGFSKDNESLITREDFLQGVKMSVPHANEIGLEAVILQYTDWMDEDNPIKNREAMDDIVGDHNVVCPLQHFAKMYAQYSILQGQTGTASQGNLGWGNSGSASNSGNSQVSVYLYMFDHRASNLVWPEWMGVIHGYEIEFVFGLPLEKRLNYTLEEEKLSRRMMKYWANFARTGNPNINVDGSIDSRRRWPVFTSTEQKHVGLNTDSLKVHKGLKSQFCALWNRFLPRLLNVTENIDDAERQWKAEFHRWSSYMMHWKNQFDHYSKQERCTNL

| SMILES | inhibition [1] [%] | inhibition [2] [%] | inhibition [3] [%] | IC50 [4] [µM] |
| --- | --- | --- | --- | --- |
| COc1ccc(C(=O)c2nccc3cc(OC)c(OC)cc23)cc1OC | 2.3 |  |  |  |
| COc1ccc(CCNC(=O)Cc2ccc(OC)c(OC)c2)cc1OC | 5.9 | 1.7 | 0 |  |
| COc1ccc(Cc2nccc3cc(OC)c(OC)cc23)cc1OC [PAPAVERINE] |  |  |  | 24.3 |
| COc1ccc(C(O)c2nccc3cc(OC)c(OC)cc23)cc1OC (stereo not drawn) |  |  |  | 10.7 |
| COc1ccc(CC2=NCCc3cc(OC)c(OC)cc32)cc1OC | 53 | 18 | 0 | 7 |
| COc1ccc(CC2NCCc3cc(OC)c(OC)cc32)cc1OC (stereo not drawn) | 9 | 17.4 | 5.2 |  |
